One may read the IC50 as the concentration that gives 50% inhibition.

Experiment [1] deals with Phosphatidylinositol 4,5-bisphosphate 3-kinase catalytic subunit alpha isoform (Homo sapiens, UniProt P42336). The experiment can be described thus: Inhibition of PI3Kalpha (unknown origin) using PIP2 as substrate in presence of ATP measured after 1 hr by ADP-Glo assay.
Experiment [2] concerns MGC-803. The experiment can be described thus: Antitumor activity against human MGC-803 cells xenografted in BALB/c nude mouse assessed as tumor growth inhibition at 30 mg/kg, po administered every day for 3 weeks. It counts as functional. Conditions: MGC-803, 504 h, read-out: TGI. (Xenograft models place foreign cells or tissue in a host animal.)
For experiment [3], the system named is MGC-803. The experiment can be described thus: Antitumor activity against human MGC-803 cells xenografted in BALB/c nude mouse assessed as reduction in tumor volume at 10 mg/kg, ip administered every day for 3 weeks by vernier caliper method. It counts as functional, organism-based.
For experiment [4], the target named is Phosphatidylinositol 4,5-bisphosphate 3-kinase catalytic subunit beta isoform (Homo sapiens, UniProt P42338). Briefly: Inhibition of PI3Kbeta (unknown origin) in presence of [33P]-ATP incubated for 2 hrs by hotspot kinase assay.
Experiment [5] concerns the target Phosphatidylinositol 4,5-bisphosphate 3-kinase catalytic subunit gamma isoform (Homo sapiens, UniProt P48736).
For experiment [6], the species on record is Homo sapiens. Briefly: Selectivity index, ratio of IC50 for inhibition of PI3Kbeta (unknown origin) to IC50 for inhibition of PI3Kalpha (unknown origin).
The target of experiment [7] is T1, Phosphatidylinositol 4,5-bisphosphate 3-kinase catalytic subunit delta isoform (Homo sapiens, UniProt O00329).
T1 sequence (O00329 whole entry): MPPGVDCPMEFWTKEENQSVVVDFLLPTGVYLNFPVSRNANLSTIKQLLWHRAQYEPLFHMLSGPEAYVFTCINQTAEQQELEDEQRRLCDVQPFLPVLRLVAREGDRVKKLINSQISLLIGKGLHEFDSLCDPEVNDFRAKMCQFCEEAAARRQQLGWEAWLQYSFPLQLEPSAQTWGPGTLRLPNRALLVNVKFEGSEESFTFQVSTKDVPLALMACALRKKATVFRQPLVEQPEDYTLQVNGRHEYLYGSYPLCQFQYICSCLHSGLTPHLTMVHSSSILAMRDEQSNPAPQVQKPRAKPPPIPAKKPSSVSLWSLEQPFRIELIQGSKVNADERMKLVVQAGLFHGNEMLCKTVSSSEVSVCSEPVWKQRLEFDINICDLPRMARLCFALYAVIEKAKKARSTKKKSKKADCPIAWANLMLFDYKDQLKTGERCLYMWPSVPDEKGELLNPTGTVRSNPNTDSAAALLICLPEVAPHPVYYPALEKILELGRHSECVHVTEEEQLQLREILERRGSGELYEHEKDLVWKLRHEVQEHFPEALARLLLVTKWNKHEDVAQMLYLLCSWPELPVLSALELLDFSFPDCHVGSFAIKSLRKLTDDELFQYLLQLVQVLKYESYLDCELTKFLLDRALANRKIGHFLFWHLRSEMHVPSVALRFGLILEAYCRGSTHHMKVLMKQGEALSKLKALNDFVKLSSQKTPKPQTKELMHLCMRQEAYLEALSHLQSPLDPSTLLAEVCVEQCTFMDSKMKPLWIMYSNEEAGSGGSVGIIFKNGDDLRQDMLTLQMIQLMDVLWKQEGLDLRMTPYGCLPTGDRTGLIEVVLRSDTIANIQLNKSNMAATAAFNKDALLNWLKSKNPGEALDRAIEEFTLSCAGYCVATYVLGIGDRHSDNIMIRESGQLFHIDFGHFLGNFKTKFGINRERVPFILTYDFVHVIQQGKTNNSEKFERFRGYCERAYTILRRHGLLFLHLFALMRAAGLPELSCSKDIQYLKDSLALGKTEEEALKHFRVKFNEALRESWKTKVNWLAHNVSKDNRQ
The experiment can be described thus: Inhibition of PI3Kdelta (unknown origin) in presence of [33P]-ATP incubated for 2 hrs by hotspot kinase assay.

Experiment [8] is filed under the species Homo sapiens. The experiment can be described thus: Selectivity index, ratio of IC50 for inhibition of PI3Kdelta (unknown origin) to IC50 for inhibition of PI3Kalpha (unknown origin).
For experiment [9], the species on record is Homo sapiens. Briefly: Selectivity index, ratio of IC50 for inhibition of PI3Kgamma (unknown origin) to IC50 for inhibition of PI3Kalpha (unknown origin).
A further experiment concerns MCF7. The experiment can be described thus: Antiproliferative activity against human MCF7 cells assessed as inhibition of cell growth incubated for 72 hrs by CCK8 assay. It counts as functional, cell-based. Conditions: MCF7, 72 h. (In general: Tetrazolium dyes change colour on reduction, which living cells bring about.)
The subject of experiment [10] is MGC-803. The experiment can be described thus: Antiproliferative activity against human MGC-803 cells assessed as inhibition of cell growth incubated for 72 hrs by CCK8 assay. Conditions: MGC-803, 72 h. In kind it is functional, cell-based.

The source made the active and inactive calls. The rule behind the calls is not given here.

Phosphatidylinositol 4,5-bisphosphate 3-kinase catalytic subunit alpha isoform, sequence (P42336 whole entry, canonical isoform): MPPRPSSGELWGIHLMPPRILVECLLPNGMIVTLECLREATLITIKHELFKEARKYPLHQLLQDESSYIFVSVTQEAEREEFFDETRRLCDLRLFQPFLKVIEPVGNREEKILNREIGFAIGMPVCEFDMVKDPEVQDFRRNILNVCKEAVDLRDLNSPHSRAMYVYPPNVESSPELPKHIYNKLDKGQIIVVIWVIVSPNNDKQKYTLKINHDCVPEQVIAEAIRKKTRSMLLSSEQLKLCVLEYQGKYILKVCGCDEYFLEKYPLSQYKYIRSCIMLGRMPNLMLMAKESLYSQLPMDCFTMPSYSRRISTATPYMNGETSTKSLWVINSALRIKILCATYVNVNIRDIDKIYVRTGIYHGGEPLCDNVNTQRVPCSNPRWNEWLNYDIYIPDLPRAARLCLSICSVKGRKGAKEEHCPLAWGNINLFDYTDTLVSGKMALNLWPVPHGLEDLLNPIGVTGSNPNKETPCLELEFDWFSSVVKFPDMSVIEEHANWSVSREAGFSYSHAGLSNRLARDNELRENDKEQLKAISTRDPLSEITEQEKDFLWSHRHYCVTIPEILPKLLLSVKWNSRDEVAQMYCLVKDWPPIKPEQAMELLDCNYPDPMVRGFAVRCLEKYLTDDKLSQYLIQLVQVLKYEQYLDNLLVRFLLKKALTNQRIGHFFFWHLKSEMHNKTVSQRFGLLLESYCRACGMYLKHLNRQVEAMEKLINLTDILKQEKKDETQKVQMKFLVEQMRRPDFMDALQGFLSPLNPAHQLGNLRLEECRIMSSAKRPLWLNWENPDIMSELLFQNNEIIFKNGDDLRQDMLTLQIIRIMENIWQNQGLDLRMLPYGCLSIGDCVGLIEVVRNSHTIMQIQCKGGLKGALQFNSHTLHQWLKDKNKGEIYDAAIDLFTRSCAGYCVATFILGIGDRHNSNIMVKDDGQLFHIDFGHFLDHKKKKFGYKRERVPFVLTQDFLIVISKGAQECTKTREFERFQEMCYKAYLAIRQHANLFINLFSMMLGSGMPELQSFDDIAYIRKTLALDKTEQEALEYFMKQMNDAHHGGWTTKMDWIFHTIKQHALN
Phosphatidylinositol 4,5-bisphosphate 3-kinase catalytic subunit beta isoform, sequence (P42338 whole entry, canonical isoform): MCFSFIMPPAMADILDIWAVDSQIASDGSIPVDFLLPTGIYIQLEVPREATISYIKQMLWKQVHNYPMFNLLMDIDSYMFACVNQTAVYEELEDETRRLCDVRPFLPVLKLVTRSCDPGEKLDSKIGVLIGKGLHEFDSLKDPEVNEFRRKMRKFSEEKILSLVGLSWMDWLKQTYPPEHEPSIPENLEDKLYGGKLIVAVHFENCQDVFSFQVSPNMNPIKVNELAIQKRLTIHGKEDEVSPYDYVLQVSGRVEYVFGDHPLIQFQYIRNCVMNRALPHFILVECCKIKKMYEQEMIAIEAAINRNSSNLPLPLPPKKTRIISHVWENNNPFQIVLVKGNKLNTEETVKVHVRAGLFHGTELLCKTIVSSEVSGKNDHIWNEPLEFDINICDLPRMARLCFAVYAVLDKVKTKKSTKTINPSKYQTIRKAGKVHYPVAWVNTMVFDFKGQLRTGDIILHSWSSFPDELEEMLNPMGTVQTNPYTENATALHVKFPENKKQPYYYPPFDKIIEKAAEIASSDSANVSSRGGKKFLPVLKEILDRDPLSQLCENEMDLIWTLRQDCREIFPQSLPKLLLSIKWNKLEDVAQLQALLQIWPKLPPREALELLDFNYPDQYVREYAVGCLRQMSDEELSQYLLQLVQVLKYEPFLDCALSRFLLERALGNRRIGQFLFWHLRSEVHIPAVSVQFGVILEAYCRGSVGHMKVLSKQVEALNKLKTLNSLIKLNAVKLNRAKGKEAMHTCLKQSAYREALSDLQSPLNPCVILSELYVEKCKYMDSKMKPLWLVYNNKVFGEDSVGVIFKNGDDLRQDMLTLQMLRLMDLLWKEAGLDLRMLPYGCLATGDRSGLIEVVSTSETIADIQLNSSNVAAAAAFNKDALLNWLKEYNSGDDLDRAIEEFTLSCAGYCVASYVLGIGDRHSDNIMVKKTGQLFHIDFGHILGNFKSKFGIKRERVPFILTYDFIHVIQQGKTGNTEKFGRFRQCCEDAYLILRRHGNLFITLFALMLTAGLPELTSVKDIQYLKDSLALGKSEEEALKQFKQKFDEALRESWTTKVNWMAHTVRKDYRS
Phosphatidylinositol 4,5-bisphosphate 3-kinase catalytic subunit gamma isoform, sequence (P48736 whole entry, canonical isoform): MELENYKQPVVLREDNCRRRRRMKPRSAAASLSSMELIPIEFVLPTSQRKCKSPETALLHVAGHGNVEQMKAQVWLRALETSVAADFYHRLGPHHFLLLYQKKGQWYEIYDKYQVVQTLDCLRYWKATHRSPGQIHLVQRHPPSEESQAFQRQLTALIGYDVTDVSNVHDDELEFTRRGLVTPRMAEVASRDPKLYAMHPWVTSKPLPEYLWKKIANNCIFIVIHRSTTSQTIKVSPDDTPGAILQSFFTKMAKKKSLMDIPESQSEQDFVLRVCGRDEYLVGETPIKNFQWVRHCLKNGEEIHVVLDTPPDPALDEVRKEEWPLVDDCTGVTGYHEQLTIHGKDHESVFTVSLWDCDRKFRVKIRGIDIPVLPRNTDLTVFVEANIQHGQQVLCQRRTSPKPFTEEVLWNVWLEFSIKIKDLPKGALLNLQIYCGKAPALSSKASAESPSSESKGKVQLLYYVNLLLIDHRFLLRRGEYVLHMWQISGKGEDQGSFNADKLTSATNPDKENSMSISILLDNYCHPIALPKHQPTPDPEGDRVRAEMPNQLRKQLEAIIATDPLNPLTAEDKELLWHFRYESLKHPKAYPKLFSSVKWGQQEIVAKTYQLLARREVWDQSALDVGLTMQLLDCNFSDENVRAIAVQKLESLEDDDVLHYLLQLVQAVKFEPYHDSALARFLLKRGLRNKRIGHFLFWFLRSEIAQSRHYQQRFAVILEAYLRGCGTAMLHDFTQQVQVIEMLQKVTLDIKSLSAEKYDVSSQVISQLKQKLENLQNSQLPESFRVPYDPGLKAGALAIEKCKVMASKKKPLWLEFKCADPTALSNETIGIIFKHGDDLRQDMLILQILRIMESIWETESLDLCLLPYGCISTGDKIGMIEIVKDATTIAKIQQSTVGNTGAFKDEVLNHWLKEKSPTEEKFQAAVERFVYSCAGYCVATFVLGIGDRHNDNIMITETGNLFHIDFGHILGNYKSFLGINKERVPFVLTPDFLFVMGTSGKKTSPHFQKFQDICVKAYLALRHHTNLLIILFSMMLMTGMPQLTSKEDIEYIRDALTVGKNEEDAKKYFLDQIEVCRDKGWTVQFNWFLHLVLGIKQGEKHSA

In the case of `Nc1nc2cc(-c3nc(Nc4cccc(C(F)(F)F)c4)nc(N4CCOCC4)n3)ccc2o1`, the IC50 in experiment [1] turned out to be 1410 nM.

On to `CC(=O)Nc1nc2cc(-c3nc(N4CCOCC4)nc(N4CCOCC4)n3)ccc2o1`, for which, in [1], the IC50 came to 66 nM. Take `Nc1nc2cc(-c3nc(NC4CCC(C(F)(F)F)CC4)nc(N4CCOCC4)n3)ccc2o1` (stereo not drawn): the IC50 in experiment [1] came to 703 nM.

Regarding `c1ccc(CNc2nc3cc(-c4nc(N5CCOCC5)nc(N5CCOCC5)n4)ccc3o2)cc1`, the IC50 in [1] came to 63 nM. The same measure, in the same setting: as for `COC(=O)c1ccc(CNc2nc3ccc(-c4nc(N5CCN(C(C)=O)CC5)nc(N5CCN(C(C)=O)CC5)n4)cc3o2)cc1`, the figure is more than 10000 nM. As to `CC(C)(C)OC(=O)N1CCN(c2nc(-c3ccc4nc(N)sc4c3)nc(N3CCOCC3)n2)CC1`, the IC50 in [1] was found to be 432 nM. On the same count and under the same terms, as for `CS(=O)(=O)N1CCN(c2nc(-c3ccc4oc(N)nc4c3)nc(N3CCOCC3)n2)CC1`, the figure is 32 nM; as for `CC(C)N1CCN(c2nc(-c3ccc4oc(N)nc4c3)nc(N3CCOCC3)n2)CC1`, 1050 nM.

As for `Nc1nc2cc(-c3nc(N4CCNCC4)nc(N4CCOCC4)n3)ccc2o1`, the IC50 in [1] was found to be 569 nM.

Turning to `CC(C)Nc1nc2cc(-c3nc(N4CCOCC4)nc(N4CCOCC4)n3)ccc2o1`, the IC50 in [1] is 2770 nM.

For the molecule `CC(C)c1ccc(CNc2nc3cc(-c4nc(N5CCOCC5)nc(N5CCOCC5)n4)ccc3o2)cc1`, in experiment [1], the 50% inhibitory concentration (IC50) turned out to be 311 nM.

For `CN(C)c1nc2ccc(-c3nc(N4CCOCC4)nc(N4CCN(S(C)(=O)=O)CC4)n3)cc2s1`, the IC50 in [1] is more than 10000 nM. On the same count and under the same terms, as for `CN(C)c1nc2ccc(-c3nc(N4CCNCC4)nc(N4CCOCC4)n3)cc2s1`, the figure is more than 10000 nM; as for `CN(C)c1nc2cc(-c3nc(N4CCOCC4)nc(N4CCOCC4)n3)ccc2o1`, 2220 nM; as for `CCN1CCN(c2nc(-c3ccc4oc(N)nc4c3)nc(N3CCOCC3)n2)CC1`, 598 nM.

For `CC(=O)N1CCN(c2nc(-c3ccc4nc(NCc5ccc(C(=O)O)cc5)oc4c3)nc(N3CCN(C(C)=O)CC3)n2)CC1`, in experiment [1], the IC50 was more than 10000 nM. `Nc1nc2ccc(-c3nc(Nc4ccc5c(c4)OCO5)nc(Nc4ccc5c(c4)OCO5)n3)cc2o1`: in [1], the IC50 was more than 10000 nM.

Take `N#Cc1ccc(CNc2nc3cc(-c4nc(N5CCOCC5)nc(N5CCOCC5)n4)ccc3o2)cc1`: the IC50 in [1] is 86 nM. Consider `CC(=O)N1CCN(c2nc(-c3ccc4nc(N)oc4c3)nc(N3CCN(C(C)=O)CC3)n2)CC1`, for which the IC50 in [1] is more than 10000 nM.

Take `Nc1nc2cc(-c3nc(NC4CCOCC4)nc(N4CCOCC4)n3)ccc2o1`: the IC50 in experiment [1] was 4240 nM. For the molecule `CC(=O)O[C@H]1C(=O)[C@@]2(C)[C@H]([C@H](OC(=O)c3ccccc3)[C@]3(O)C[C@H](OC(=O)[C@H](O)[C@@H](NC(=O)c4ccccc4)c4ccccc4)C(C)=C1C3(C)C)[C@]1(OC(C)=O)CO[C@@H]1C[C@@H]2O` [PACLITAXEL], in the experiment on MGC-803 [2], the inhibition in vivo at 30 mg/kg worked out at 60.3%. In the experiment with MGC-803 [3], the result was Active. As to `CC(C)(C)OC(=O)N1CCN(c2nc(-c3ccc4oc(N)nc4c3)nc(N3CCOCC3)n2)CC1`, the IC50 in [1] was found to be 259 nM. Consider `CS(=O)(=O)N1CCN(c2nc(-c3ccc4nc(N)oc4c3)nc(N3CCN(S(C)(=O)=O)CC3)n2)CC1`, for which the IC50 in experiment [1] is more than 10000 nM. Turning to `CC(C)C(=O)Nc1nc2cc(-c3nc(N4CCOCC4)nc(N4CCOCC4)n3)ccc2o1`, in experiment [1], the 50% inhibitory concentration (IC50) worked out at 397 nM. As for `FC(F)(F)c1ccc(CNc2nc3cc(-c4nc(N5CCOCC5)nc(N5CCOCC5)n4)ccc3o2)cc1`, the IC50 in [1] was 300 nM. `CN(C)c1nc2ccc(-c3nc(Nc4ccc(C(F)(F)F)cc4)nc(N4CCOCC4)n3)cc2s1`: the IC50 in [1] was more than 10000 nM. The same measure, in the same setting: as for `c1cc2oc(NC3CCCC3)nc2cc1-c1nc(N2CCOCC2)nc(N2CCOCC2)n1`, the figure is 2820 nM. Still for that read-out and setting: the result for `O=C(Nc1nc2cc(-c3nc(N4CCOCC4)nc(N4CCOCC4)n3)ccc2o1)C1CCCCC1` reads 7450 nM.

Take `COC(=O)c1ccc(CNc2nc3cc(-c4nc(N5CCOCC5)nc(N5CCOCC5)n4)ccc3o2)cc1`: in [1], the IC50 stood at 99 nM. For `O=C(O)c1ccc(CNc2nc3ccc(-c4nc(N5CCOCC5)nc(N5CCOCC5)n4)cc3o2)cc1`, the IC50 in experiment [1] stood at 6 nM; in experiment [4] it was 100 nM; in experiment [5], 3490 nM; in experiment [7], 51 nM. Moreover, the Ratio IC50 in the experiment listed under Homo sapiens [6] came to 16; in the experiment filed under Homo sapiens [8] it was 8.5; in the experiment filed under Homo sapiens [9], 581. With `O=[N+]([O-])c1ccc(CNc2nc3cc(-c4nc(N5CCOCC5)nc(N5CCOCC5)n4)ccc3o2)cc1`, in experiment [1], the IC50 amounted to 72 nM. Regarding `COc1ccc(CNc2nc3cc(-c4nc(N5CCOCC5)nc(N5CCOCC5)n4)ccc3o2)cc1`, the IC50 in experiment [1] stood at 81 nM. Regarding `CC(=O)N1CCN(c2nc(-c3ccc4oc(N)nc4c3)nc(N3CCOCC3)n2)CC1`, the IC50 in experiment [1] was 23 nM. Take `CN(C)c1nc2ccc(-c3nc(N4CCOCC4)nc(N4CCOCC4)n3)cc2s1`: the IC50 in experiment [1] was more than 10000 nM. `CC(=O)N1CCN(c2nc(-c3ccc4nc(N)sc4c3)nc(N3CCOCC3)n2)CC1`: the IC50 in [1] came to 497 nM. Consider `Nc1nc2ccc(-c3nc(N4CCOCC4)nc(N4CCOCC4)n3)cc2s1`, for which the IC50 in [1] was determined as 357 nM. With `CC(=O)Nc1nc2ccc(-c3nc(N4CCOCC4)nc(N4CCOCC4)n3)cc2s1`, the IC50 in [1] came out at 8750 nM. For `NC(=O)c1ccc(CNc2nc3cc(-c4nc(N5CCOCC5)nc(N5CCOCC5)n4)ccc3o2)cc1`, in experiment [1], the IC50 was determined as 47 nM.

Turning to `Cc1nc(NC(=O)N2CCC[C@H]2C(N)=O)sc1-c1ccnc(C(C)(C)C(F)(F)F)c1` [ALPELISIB], the IC50 in the experiment with MCF7 and in the experiment on MGC-803 [10] was 430 nM each time. As to `Nc1nc2ccc(-c3nc(N4CCOCC4)nc(N4CCC(C(F)(F)F)CC4)n3)cc2s1`, in experiment [1], the IC50 was 5360 nM.
